Laboratory results from patent US20030031688A1, “Cosmetic composition with improved skin moisturizing properties” (priority 2001, published 2003).

Assay: Moisture uptake of powder samples in controlled humidity chamber
Format: physicochemical
Settings: 65% relative humidity at 25° C.
Description: A mixture of urea and coenzyme Q10 (9:1 Wt./wt.)) was prepared as a dry blend of the raw materials by manually mixing urea (9 parts by weight) and coenzyme Q10 (1 part by weight), with mortar and pestle grinding as necessary, to provide an essentially homogeneous powder. The moisture-absorbing properties were determined based on the amount of moisture uptake over time. For comparison, the moisture-absorbing properties of powder samples of the unblended individual raw materials, i.e., urea alone and coenzyme Q10 alone, were measured.
The samples were placed in a controlled humidity chamber (65% relative humidity at 25° C.) and the mass of each sample was measured at various time points. The water uptake is reflected by the increase in mass over time.
The percentage values shown in Table 1 reflect the percentage increase in mass relative to the weight of the starting sample (prior to being placed in the controlled humidity chamber). The expected percentage values for the blend (“Expected”) were calculated on the basis of the fractional contribution of each component alone, as represented by the following equation: Expected %=(0.9×% measured for urea alone)+(0.1×% measured for Q10 alone).

Row | percentage increase in mass relative to the weight of the starting sample (water uptake) (time 5) | percentage increase in mass relative to the weight of the starting sample (water uptake) (time 10) | percentage increase in mass relative to the weight of the starting sample (water uptake) (time 15) | percentage increase in mass relative to the weight of the starting sample (water uptake) (time 30) | percentage increase in mass relative to the weight of the starting sample (water uptake) (time 45) | percentage increase in mass relative to the weight of the starting sample (water uptake) (time 1 hr) | Compound
1 | 1.0% | 0.1% | 0.5% | 1.5% | 2.4% | 3.1% | COC1=C(OC)C(=O)C(C/C=C(\C)CC/C=C(\C)CC/C=C(\C)CC/C=C(\C)CC/C=C(\C)CC/C=C(\C)CC/C=C(\C)CC/C=C(\C)CC/C=C(\C)CCC=C(C)C)=C(C)C1=O [Product Q10, coenzyme Q10]
2 | 31.0% | 4.0% | 5.5% | 10.6% | 16.6% | 22.4% | NC(N)=O [Urea]
